Columns and labels:
[1] = test system: PCP (antagonist radioligand); conditions: at the tested concentration; negative values set to zero
[2] = target: human muscarinic receptor M3 (Homo sapiens, UniProt P20309); assay: cell-based
Experimental: (§1) All cells used in the following experiments were clonal populations of Chinese Hamster Ovary (CHO) cells stably expressing the corresponding human muscarinic receptor, except for the M4 cell line, which was a population of CHO cells transiently transfected with the human M4 receptor. […] The procedure was as follows: • 1. Cells were thawed and cultured in cell culture medium (DMEM/F12 containing 10% FBS, 1× penicillin-streptomycin and 600 μg/ml hygromycin B) at 37° C. in 5% (v/v) CO2. • 2. One day before the assays, cells were detached using TrypLE™ and counted using a cell-counter. […] 12,000 cells/well were seeded in 30 μl/well culture medium in a 384-well cell plate and incubated overnight at 37C, 5% (v/v) CO2. • 4. On the assay day, 2× dye solution was prepared following the manual of the FLIPR® Calcium 6 Assay Kit: • i. The dye was diluted with assay buffer (20 mM HEPES in 1× HBSS, PH 7.4); • ii. Probenecid was added to a final concentration of 5 mM; • iii. […] were vortexed vigorously for 1-2 minutes. • 5. Medium was removed from the cell plate by flicking the cell plate on paper towels. • 6. 10 μl of assay buffer and 10 μl of 2× dye solution was added to each well of the cell plate. • 7. The cell plate was shaken on a plate shaker at 600 rpm for 2 minutes and incubated at 37° C. for 2 hours followed by an additional 15-minute incubation at 25° C. • 8. The test compounds were next prepared in assay buffer: • a. All compounds were diluted to the required concentration with DMSO and added to a 384-well compound plate; • b. All compounds were serially diluted; • 1. Starting with 10 mM concentration of each test compound, all samples were serially diluted in 3-fold dilutions. • 2. 90 nl/well of each compound was transferred from the source plate to a 384-well compound plate using an Echo liquid handler. • 3. 30 μl/well assay buffer was added to the compound plate; • c. The plates were mixed on a plate shaker for 2 mins; • 9. The cell plate, compound plate and pipette tips were placed in the FLIPR screening system and 10 μl of each compound was added to a well of the cell plate. • 10. Plates were read for 160 sec with 1 sec intervals to obtain the data in agonist mode, then kept at 25° C. in the dark for 30 min. • 11.

[3] = target: human muscarinic receptor M1 (Homo sapiens, UniProt P11229); assay: cell-based
Experimental: as §1

human M4 receptor = target: T1, human M4 receptor (Homo sapiens, UniProt P08173); assay: Calcium flux assay (FLIPR), CHO cells transiently transfected with human M4; assay type: cell-based; conditions: agonist mode
T1 construct: expressed in transfected cells; host or cells: CHO (transient transfection)
Experimental: All cells used in the following experiments were clonal populations of Chinese Hamster Ovary (CHO) cells stably expressing the corresponding human muscarinic receptor, except for the M4 cell line, which was a population of CHO cells transiently transfected with the human M4 receptor. […] The procedure was as follows: • 1. Cells were thawed and cultured in cell culture medium (DMEM/F12 containing 10% FBS, 1× penicillin-streptomycin and 600 μg/ml hygromycin B) at 37° C. in 5% (v/v) CO2. • 2. One day before the assays, cells were detached using TrypLE™ and counted using a cell-counter. […] 12,000 cells/well were seeded in 30 μl/well culture medium in a 384-well cell plate and incubated overnight at 37C, 5% (v/v) CO2. • 4. On the assay day, 2× dye solution was prepared following the manual of the FLIPR® Calcium 6 Assay Kit: • i. The dye was diluted with assay buffer (20 mM HEPES in 1× HBSS, PH 7.4); • ii. Probenecid was added to a final concentration of 5 mM; • iii. Cells were vortexed vigorously for 1-2 minutes. • 5. Medium was removed from the cell plate by flicking the cell plate on paper towels. • 6. 10 μl of assay buffer and 10 μl of 2× dye solution was added to each well of the cell plate. • 7. […] Plates were read for 160 sec with 1 sec intervals to obtain the data in agonist mode, then kept at 25° C. in the dark for 30 min. • 11.

[4] = target: T2, human muscarinic receptor M5 (Homo sapiens, UniProt P08912); assay: Calcium flux assay (FLIPR), CHO cells expressing human M5; assay type: cell-based; conditions: agonist mode
T2 construct: expressed in transfected cells
Experimental: All cells used in the following experiments were clonal populations of Chinese Hamster Ovary (CHO) cells stably expressing the corresponding human muscarinic receptor, except for the M4 cell line, which was a population of CHO cells transiently transfected with the human M4 receptor. Muscarinic agonism and antagonism of each receptor was measured by a quantitative calcium flux assay that is used for multiple classes of G-protein-coupled receptors, or GPCRs, as described elsewhere (e.g., Arkin et al., […], PMID: 22553878). Acetylcholine and atropine were used as positive controls for receptor agonism and antagonism, respectively. The procedure was as follows: • 1. Cells were thawed and cultured in cell culture medium (DMEM/F12 containing 10% FBS, 1× penicillin-streptomycin and 600 μg/ml hygromycin B) at 37° C. in 5% (v/v) CO2. • 2. One day before the assays, cells were detached using TrypLE™ and counted using a cell-counter. Only cells with >85% viability are used for the assay. • 3. […] Plates were read for 160 sec with 1 sec intervals to obtain the data in agonist mode, then kept at 25° C. in the dark for 30 min. • 11. […] Plates were read for 160 sec with 1 sec intervals, thereby measuring the ability for test compounds to antagonize the activation of muscarinic receptors by Ach.

Sequence of human muscarinic receptor M3 (P20309 whole entry): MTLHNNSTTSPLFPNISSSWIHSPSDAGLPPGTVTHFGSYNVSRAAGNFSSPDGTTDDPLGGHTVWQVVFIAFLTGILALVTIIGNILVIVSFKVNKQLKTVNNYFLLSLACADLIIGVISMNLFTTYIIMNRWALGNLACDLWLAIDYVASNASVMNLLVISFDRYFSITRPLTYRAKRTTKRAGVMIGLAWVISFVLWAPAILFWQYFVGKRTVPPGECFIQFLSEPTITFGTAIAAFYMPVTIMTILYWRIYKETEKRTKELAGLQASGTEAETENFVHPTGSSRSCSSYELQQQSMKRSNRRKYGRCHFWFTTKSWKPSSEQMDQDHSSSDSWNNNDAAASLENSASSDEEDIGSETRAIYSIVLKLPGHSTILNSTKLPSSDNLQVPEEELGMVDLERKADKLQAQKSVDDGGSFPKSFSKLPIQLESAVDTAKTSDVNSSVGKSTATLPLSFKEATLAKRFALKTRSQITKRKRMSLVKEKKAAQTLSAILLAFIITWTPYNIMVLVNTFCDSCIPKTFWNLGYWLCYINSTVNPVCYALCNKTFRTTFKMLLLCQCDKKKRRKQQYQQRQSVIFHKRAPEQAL
Sequence of human muscarinic receptor M1 (P11229 whole entry): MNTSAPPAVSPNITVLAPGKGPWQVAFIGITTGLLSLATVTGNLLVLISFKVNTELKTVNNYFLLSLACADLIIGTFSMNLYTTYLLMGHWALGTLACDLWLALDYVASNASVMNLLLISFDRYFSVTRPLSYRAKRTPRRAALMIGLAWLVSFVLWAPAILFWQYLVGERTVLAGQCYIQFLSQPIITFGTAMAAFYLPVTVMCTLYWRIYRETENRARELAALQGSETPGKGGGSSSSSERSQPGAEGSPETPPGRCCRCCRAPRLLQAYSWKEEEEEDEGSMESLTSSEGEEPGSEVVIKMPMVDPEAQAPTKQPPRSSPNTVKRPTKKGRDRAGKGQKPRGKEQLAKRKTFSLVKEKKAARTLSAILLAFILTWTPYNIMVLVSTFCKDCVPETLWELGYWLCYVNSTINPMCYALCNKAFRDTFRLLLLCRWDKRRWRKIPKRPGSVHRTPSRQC
T2 sequence (P08912 whole entry): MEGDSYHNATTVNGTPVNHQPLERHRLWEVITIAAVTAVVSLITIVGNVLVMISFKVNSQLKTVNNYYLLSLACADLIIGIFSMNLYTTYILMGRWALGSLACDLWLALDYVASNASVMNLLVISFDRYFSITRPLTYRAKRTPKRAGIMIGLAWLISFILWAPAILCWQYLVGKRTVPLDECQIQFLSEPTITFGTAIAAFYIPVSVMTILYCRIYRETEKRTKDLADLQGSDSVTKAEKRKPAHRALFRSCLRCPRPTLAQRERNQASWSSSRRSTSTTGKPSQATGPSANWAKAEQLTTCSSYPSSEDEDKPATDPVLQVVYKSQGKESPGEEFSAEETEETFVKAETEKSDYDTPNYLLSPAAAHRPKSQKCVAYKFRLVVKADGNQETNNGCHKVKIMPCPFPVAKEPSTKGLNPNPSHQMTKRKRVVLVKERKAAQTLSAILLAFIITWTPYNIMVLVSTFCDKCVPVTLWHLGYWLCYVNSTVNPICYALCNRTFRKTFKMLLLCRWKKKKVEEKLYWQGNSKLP
T1 sequence (P08173 whole entry): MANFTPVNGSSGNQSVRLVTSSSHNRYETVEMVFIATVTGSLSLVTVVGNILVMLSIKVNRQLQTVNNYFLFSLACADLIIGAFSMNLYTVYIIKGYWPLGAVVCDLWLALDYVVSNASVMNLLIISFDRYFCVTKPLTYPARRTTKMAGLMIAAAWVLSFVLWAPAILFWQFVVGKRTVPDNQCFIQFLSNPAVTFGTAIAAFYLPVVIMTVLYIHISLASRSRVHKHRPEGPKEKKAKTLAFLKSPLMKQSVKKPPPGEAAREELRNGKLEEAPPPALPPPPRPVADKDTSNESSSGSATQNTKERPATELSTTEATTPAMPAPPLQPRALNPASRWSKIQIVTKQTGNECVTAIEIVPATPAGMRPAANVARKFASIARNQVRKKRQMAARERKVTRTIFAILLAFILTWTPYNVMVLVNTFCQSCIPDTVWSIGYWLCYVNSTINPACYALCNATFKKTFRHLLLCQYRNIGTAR

| EC50 [2] | EC50 [3] | EC50 (human M4 receptor) | EC50 [4] | Structure (SMILES) | signal, PCP (antagonist radioligand) [1] |
| --- | --- | --- | --- | --- | --- |
|  |  |  |  | O[C@@](CCN1CCCCC1)(c1ccccc1)C1CCCCC1 [(R)-THP, (R)-trihexyphenidyl] | 0.00% |
| 0.0208 µM | 0.195 µM | > 10 µM | 0.124 µM | C[C@@H](C[N+](C)(C)C)OC(N)=O.[Cl-] [(S)-BTC, (S)-bethanechol] |  |

— patent US12290513B2, “Therapeutic methods and compositions for treating movement disorders” (Vima Therapeutics, Inc., priority 2023, dated 2025)
